Results as given in the supplement of paper PMC10307832.

Assays:
Experiment in all cases: relative viability (nuclei count vs DMSO), 5 days (fraction); higher = more cells survive
AZD6482 + Dasatinib = compound: Cc1cc([C@@H](C)Nc2ccccc2C(=O)O)c2nc(N3CCOCC3)cc(=O)n2c1 [AZD6482] + Cc1nc(Nc2ncc(C(=O)Nc3c(C)cccc3Cl)s2)cc(N2CCN(CCO)CC2)n1 [Dasatinib] (partner 0.075 µM)
In short: (§1)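 Lung cancer cell lines were seeded in 1536-well plates and dosed by pin tool the next day, with either a single drug or a fixed anchor-drug dose combined with five library-drug doses (not always all listed) spaced in √10 steps. Five days later, one step fixed the cells and stained their nuclei (final 0.05% Triton X-100, 1% formaldehyde, 1 ug/ml Hoechst), and nuclei were counted on 4× images. Relative viability is the nuclei count in treated wells divided by the count in vehicle wells, and each value is the median of duplicate plates.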

AZD6482 + Vorinostat = compound: Cc1cc([C@@H](C)Nc2ccccc2C(=O)O)c2nc(N3CCOCC3)cc(=O)n2c1 [AZD6482] + O=C(CCCCCCC(=O)Nc1ccccc1)NO [Vorinostat] (partner 1 µM)
In short: as §1

AZD6482 + Decitabine = compound: Cc1cc([C@@H](C)Nc2ccccc2C(=O)O)c2nc(N3CCOCC3)cc(=O)n2c1 [AZD6482] + Nc1ncn([C@H]2C[C@H](O)[C@@H](CO)O2)c(=O)n1 [Decitabine] (partner 2 µM)
In short: as §1

[1] = compound: COc1cc2nc(N3CCCN(C)CC3)nc(NC3CCN(Cc4ccccc4)CC3)c2cc1OC + O=C(CCCCCCC(=O)Nc1ccccc1)NO [Vorinostat] (partner 1 µM)
In short: as §1

Cell Line | relative viability (AZD6482 + Dasatinib; first compound 0.08 µM) | relative viability (AZD6482 + Dasatinib; first compound 0.253 µM) | relative viability (AZD6482 + Dasatinib; first compound 0.8 µM) | relative viability (AZD6482 + Dasatinib; first compound 2.53 µM) | relative viability (AZD6482 + Dasatinib; first compound 8 µM) | relative viability (AZD6482 + Vorinostat; first compound 0.08 µM) | relative viability (AZD6482 + Vorinostat; first compound 0.253 µM) | relative viability (AZD6482 + Vorinostat; first compound 0.8 µM) | relative viability (AZD6482 + Vorinostat; first compound 2.53 µM) | relative viability (AZD6482 + Vorinostat; first compound 8 µM) | relative viability (AZD6482 + Decitabine; first compound 0.08 µM) | relative viability (AZD6482 + Decitabine; first compound 0.253 µM) | relative viability (AZD6482 + Decitabine; first compound 0.8 µM) | relative viability (AZD6482 + Decitabine; first compound 2.53 µM) | relative viability (AZD6482 + Decitabine; first compound 8 µM) | relative viability ([1]; first compound 0.2 µM) | relative viability ([1]; first compound 0.6325 µM) | relative viability ([1]; first compound 2 µM) | relative viability ([1]; first compound 6.325 µM)
HCC-78 | 0.298 | 0.207 | 0.254 | 0.192 | 0.199 | 0.499 | 0.389 | 0.395 | 0.298 | 0.341 | 0.555 | 0.462 | 0.646 | 0.474 | 0.442 | 0.495 | 0.442 | 0.462 | 0.429
NCI-H727 | 0.401 | 0.41 | 0.41 | 0.266 | 0.395 | 1.1 | 1.11 | 1.17 | – | 0.96 | 0.951 | 0.85 | 1.02 | – | 0.798 | 1.27 | 1.14 | 1.15 | 1.07
NCI-H2087 | 0.722 | 0.822 | 0.951 | – | 0.74 | 0.465 | 0.81 | 0.98 | 0.183 | 0.92 | 0.245 | 0.232 | 0.266 | 0.208 | 0.215 | 0.806 | 0.618 | 0.521 | 0.611
BEN | 0.358 | 0.269 | 0.39 | 0.216 | 0.339 | 0.541 | 0.546 | 0.594 | 0.467 | 0.578 | 0.621 | 0.533 | 0.767 | 0.509 | 0.581 | 0.608 | 0.54 | 0.636 | 0.552
LCLC-103H | 0.361 | 0.359 | 0.224 | 0.251 | 0.225 | 0.661 | 0.748 | 0.784 | 0.565 | 0.51 | 0.597 | 0.682 | 0.677 | 0.716 | 0.519 | 0.776 | 0.754 | 0.844 | 0.656
EKVX | 0.465 | 0.507 | 0.504 | 0.304 | 0.3 | 0.537 | 0.662 | 0.578 | 0.485 | 0.361 | 0.334 | 0.278 | 0.312 | 0.266 | 0.244 | 0.703 | 0.721 | 0.541 | 0.722
LXF-289 | 0.188 | 0.15 | 0.193 | 0.106 | 0.123 | 0.814 | 0.741 | 0.87 | 0.729 | 0.752 | 0.356 | 0.422 | 0.36 | 0.356 | 0.369 | 0.722 | 0.783 | 0.796 | 0.654
ABC-1 | 0.5 | 0.591 | 0.699 | 0.496 | 0.53 | 1.11 | 0.877 | 1.01 | 0.83 | 0.986 | 0.902 | 1.14 | 0.985 | 1.26 | 0.947 | 0.959 | 1.23 | 1.13 | 0.917
NCI-H650 | 0.446 | – | 0.453 | 0.292 | 0.319 | 0.464 | 0.489 | 0.372 | 0.256 | 0.301 | 0.318 | 0.292 | 0.378 | 0.33 | 0.317 | 0.573 | 0.391 | 0.475 | 0.321
NCI-H1650 | 0.224 | 0.278 | 0.316 | 0.234 | 0.318 | 0.512 | 0.629 | 0.805 | 0.437 | 0.632 | 0.381 | 0.571 | 0.544 | 0.584 | 0.474 | 0.66 | 0.656 | 0.747 | 0.465
NCI-H2085 | 0.203 | 0.159 | 0.21 | 0.198 | 0.216 | 0.557 | 0.402 | 0.517 | 0.398 | 0.341 | 0.485 | 0.456 | 0.471 | 0.357 | 0.403 | 0.799 | 0.954 | 0.802 | 0.724
NCI-H1793 | 0.387 | 0.34 | 0.351 | 0.249 | 0.358 | 0.582 | 0.481 | 0.676 | 0.38 | 0.404 | 0.419 | 0.429 | 0.313 | 0.297 | 0.271 | 0.692 | 1.06 | 0.871 | 0.638
LC-2-ad | 0.431 | 0.357 | 0.537 | 0.306 | 0.282 | 0.703 | 0.702 | 0.854 | 0.605 | 0.625 | 0.799 | 0.71 | 0.811 | 0.661 | 0.635 | 0.679 | 0.716 | 0.763 | 0.693
COR-L 105 | 0.287 | 0.318 | 0.325 | 0.262 | 0.273 | 0.75 | 0.663 | 0.907 | 0.649 | 0.648 | 0.67 | 0.68 | 0.628 | 0.601 | 0.559 | 0.805 | 1.04 | 0.728 | 0.595
NCI-H1355 | 0.479 | 0.496 | 0.766 | 0.492 | 0.456 | 0.446 | 0.541 | 0.674 | 0.447 | 0.407 | 0.346 | 0.362 | 0.363 | 0.341 | 0.35 | 0.654 | 0.618 | 0.724 | 0.605
H3255 | 0.339 | 0.342 | 0.476 | 0.345 | 0.322 | 0.741 | 0.871 | 0.764 | 0.697 | 0.689 | 0.474 | 0.531 | 0.539 | 0.388 | 0.472 | 0.77 | 0.796 | 0.858 | 0.772
NCI-H1993 | 0.514 | 0.543 | 0.442 | 0.348 | 0.542 | 0.742 | 0.73 | 0.569 | 0.376 | 0.47 | 0.526 | 0.481 | 0.598 | 0.436 | 0.458 | 0.778 | 0.798 | 0.855 | 0.661
